# Experimental data from US5854216A, “Marker for growth hormone-releasing factor receptors” (Universite de Montreal, priority 1996, dated 1998).
# Square brackets hold non-standard residues; d marks the D form. Ends that are not written are not given here. Peptide text beside a SMILES is read from it.
# What was measured:
# [1] = molecular target: T1, GRF receptor of rat adenopituitary (rat, UniProt Q02644-2)
# T1 sequence: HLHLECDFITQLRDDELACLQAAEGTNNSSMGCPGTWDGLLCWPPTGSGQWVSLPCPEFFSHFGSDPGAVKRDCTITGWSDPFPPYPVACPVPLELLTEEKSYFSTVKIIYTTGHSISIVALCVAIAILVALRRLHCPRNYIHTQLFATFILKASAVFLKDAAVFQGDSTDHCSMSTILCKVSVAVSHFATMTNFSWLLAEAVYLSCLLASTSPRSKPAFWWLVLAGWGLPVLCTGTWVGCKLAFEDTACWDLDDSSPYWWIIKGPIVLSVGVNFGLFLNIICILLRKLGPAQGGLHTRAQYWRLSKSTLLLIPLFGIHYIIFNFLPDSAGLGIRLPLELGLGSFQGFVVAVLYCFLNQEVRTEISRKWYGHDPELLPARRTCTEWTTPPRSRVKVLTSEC
# [2] = molecular target: T1, GRF receptor of rat adenopituitary; assay: displacement of 125I-Tyr10 hGRF(1-44)NH2 from rat anterior pituitary homogenate
# [3] = molecular target: T2, GRF receptors ([^125 I-Tyr^10 ]hGRF(1-44)NH2 binding sites in rat adenopituitary) (Rattus norvegicus, UniProt Q02644); assay: Competitive binding assay with [^125 I-Tyr^10 ]hGRF(1-44)NH2 on anterior pituitary homogenates; settings: for Relative affinity: ratio IC50 of hGRF(1-29)NH2 /IC50 analogue
# T2 construct: from tissue; host or cells: rat anterior pituitary homogenate
# T2 sequence (Q02644 23-423 isoform Q02644-2 limits assumed): T1 sequence
# Protocol: The binding of [^125 I-Tyr^10 ]hGRF(1-44)NH2 was performed on anterior pituitary homogenates as previously described (Gaudreau P. et al., J. Biol. Chem., 1992, 35:1864-1869). Briefly, anterior pituitaries (pit.) were dissected out, rinsed and homogenized for 8 sec with a Micro Ultrasonic Cell Disrupter™, in ice-cold 50 mM Tris-HCl buffer, pH 7.4, containing 5 mM MgCl2 and 5 mM EDTA (1 pit./0.5 ml). These homogenates were used immediately. Competition studies were performed using 35-50 pM [^125 I-Tyr^10 ]hGRF(1-44)NH2 as radio-ligand,50 μl of homogenate (70 to 75 μg of protein), and increasing concentrations of Nε-CF-[Lys^31 ]hGRF or other GRF analogues (0-1000 nM) or with 2.4 μM rGRF(1-29)NH2 for determination of non-specific binding, in a total volume of 300 μl of Tris-HCl buffer, pH 7.4, containing 5 mM EDTA, 5 mM MgCl2 and 0.42% BSA. Incubations were carried out at 23° C. for 60 min and stopped by centrifugation (12,000 g, 5 min, at 4° C.). The radioactivity content in the pellet was measured by gamma counting. The affinity of hGRF(1-29)NH2 was tested in each experiment to assess the validity of the assay and determine the relative affinity of the analogues. […] The Hill values indicate that all these peptides bind to the high and low affinity GRF binding sites found in the anterior pituitary.
# [4] = molecular target: T3, GRF receptor (adenylate cyclase activity in rat adenopituitary) (Rattus norvegicus, UniProt Q02644); assay: Adenylate cyclase assay on anterior pituitary homogenates (cAMP by HPLC); type: biochemical; settings: for IC50: 50% of maximal cAMP accumulation induced by 1 μM hGRF(1-29)NH2
# T3 construct: from tissue; host or cells: rat anterior pituitary homogenate
# T3 sequence (Q02644 23-423 isoform Q02644-2 limits assumed): T1 sequence
# Protocol: The adenylate cyclase activity Nε-CF-[Lys^31 ]hGRF was performed on anterior pituitary homogenates as previously described (Lefrangois L. and Gaudreau P., J. Chromatogr., 1993, 619:116-120). Briefly, anterior pituitaries (pit.) were dissected out, rinsed and homogenized for 8 sec with a Micro Ultrasonic Cell Disrupter™, in ice-cold 20 mM Tris-HCl buffer (pH 7.5) containing 2 mM MgCl2 and 250 mM sucrose (1 pit./0.5 ml).
# Samples of anterior pituitary homogenates (30-40 μg protein) were incubated in 1.5 ml Eppendorf™ tubes with 30 mM Tris-HCl, 5 mM MgCl2, 0.5 mM EGTA, containing 0.5 mM ATP, 1 mM IBMX, 10 μM GTP and an ATP regenerating system consisting of 2 mM creatine phosphate, 0.1 mg/ml creatine kinase and, 0.1 mg/ml myokinase in a final volume of 120 μl. Incubations were initiated by adding 20 μl of the homogenate to the reaction mixture which had previously been equilibrated at 37° C. for 2 min. The reactions were carried out for 8 min at 37° C. and stopped by heating the samples in boiling water for 4 min. Samples were centrifuged (12000 g, 5 min, 4° C.) and supernatants were filtered through 0.45 μm Millex HV4 ™ filters and transferred to autosampler vials for HPLC quantification of cAMP.
# [5] = Table 11, mean±SD of 2 or mean±SE of 3 experiments for analogues, mean±SE of 11 for hGRF(1-29)NH2
# [6] = Table 12, mean±SD of 2 or mean±SE of 3 to 6 experiments, 10 for hGRF(1-29)NH2
molecule,measurement,setting,value
"Ala^8,Ala^9,Ala^15,Ala^22 ! hGRF(1-29)NH2 (from UniProt P01286) (peptide)",adenylate cyclase activity: EC50 of cAMP accumulation (column head prints IC50),[1],2.88 nM
same,adenylate cyclase activity: Relative activity (%) against hGRF(1-29)NH2,[1],1270%
same,Relative affinity (%) against hGRF(1-29)NH2,[2],774%
YADAIFTNSYRKVLGQLSARKKLQDIMSR-NH2 [Lys^22],Hill coef.,[3]; Table 11,0.62 ± 0.06
same,IC50,[3]; [5],0.23 ± 0.04 nM
same,Relative affinity,[3]; Table 11,1043 ± 181%
same,biological activity compared to that of native GRF,[3]; rat adenopituitary,preserved or increased
same,IC50,[4]; [6],2.63 ± 0.64 nM
same,Relative activity,"[4]; Table 12, ratio EC50 of hGRF(1-29)NH2 /EC50 analogue",1395 ± 339%
Lys^22 ! hGRF(1-29)NH2 (from UniProt P01286) (peptide),adenylate cyclase activity: EC50 of cAMP accumulation (column head prints IC50),[1],2.63 nM
same,adenylate cyclase activity: Relative activity (%) against hGRF(1-29)NH2,[1],1400%
same,Relative affinity (%) against hGRF(1-29)NH2,[2],1040%
"D-Ala^2,D-Tyr^10,D-Ala^15 ! hGRF(1-29)NH2 (from UniProt P01286) (peptide)",adenylate cyclase activity: Relative activity (%) against hGRF(1-29)NH2,[1],21%
same,Relative affinity (%) against hGRF(1-29)NH2,[2],18%
"YADAIFTASYRKVLAQLSARKALQDIMSR-NH2 [Ala^8, Ala^15, Ala^22]",IC50,[3]; [5],0.25 ± 0.07 nM
same,IC50,[4]; [6],2.6 ± 0.7 nM
"CC[C@H](C)[C@H](NC(=O)[C@H](C)NC(=O)[C@H](CC(=O)O)NC(=O)[C@@H](C)NC(=O)[C@@H](N)Cc1ccc(O)cc1)C(=O)N[C@@H](Cc1ccccc1)C(=O)N[C@H](C(=O)N[C@@H](CC(N)=O)C(=O)N[C@@H](CO)C(=O)N[C@H](Cc1ccc(O)cc1)C(=O)N[C@@H](CCCNC(=N)N)C(=O)N[C@@H](CCCCN)C(=O)N[C@H](C(=O)N[C@@H](CC(C)C)C(=O)N[C@H](C)C(=O)N[C@@H](CCC(N)=O)C(=O)N[C@@H](CC(C)C)C(=O)N[C@@H](CO)C(=O)N[C@@H](C)C(=O)N[C@@H](CCCNC(=N)N)C(=O)N[C@H](CCCCN)C(=O)N[C@@H](CC(C)C)C(=O)N[C@@H](CC(C)C)C(=O)N[C@@H](CCC(N)=O)C(=O)N[C@@H](CC(=O)O)C(=O)N[C@H](C(=O)N[C@@H](CCSC)C(=O)N[C@@H](CO)C(=O)N[C@@H](CCCNC(=N)N)C(N)=O)[C@@H](C)CC)C(C)C)[C@@H](C)O [D-Ala^2, D-Tyr^10, D-Ala^15, D-Lys^21] (H-Y[dA]DAIFTNS[dY]RKVL[dA]QLSAR[dK]LLQDIMSR-NH2)",IC50,[3]; [5],31.6 ± 11.7 nM
same,IC50,[4]; [6],136 ± 50 nM
"CC[C@H](C)[C@H](NC(=O)[C@H](C)NC(=O)[C@H](CC(=O)O)NC(=O)[C@H](C)NC(=O)[C@@H](N)Cc1ccc(O)cc1)C(=O)N[C@@H](Cc1ccccc1)C(=O)N[C@H](C(=O)N[C@H](CC(N)=O)C(=O)N[C@@H](CO)C(=O)N[C@@H](Cc1ccc(O)cc1)C(=O)N[C@@H](CCCNC(=N)N)C(=O)N[C@@H](CCCCN)C(=O)N[C@H](C(=O)N[C@@H](CC(C)C)C(=O)NCC(=O)N[C@@H](CCC(N)=O)C(=O)N[C@@H](CC(C)C)C(=O)N[C@@H](CO)C(=O)N[C@@H](C)C(=O)N[C@@H](CCCNC(=N)N)C(=O)N[C@@H](CCCCN)C(=O)N[C@H](CC(C)C)C(=O)N[C@@H](CC(C)C)C(=O)N[C@@H](CCC(N)=O)C(=O)N[C@@H](CC(=O)O)C(=O)N[C@H](C(=O)N[C@@H](CCSC)C(=O)N[C@@H](CO)C(=O)N[C@@H](CCCNC(=N)N)C(N)=O)[C@@H](C)CC)C(C)C)[C@@H](C)O [D-Ans^8, D-Leu^22]",IC50,[3]; [5],4.9 ± 3.25 nM
same,IC50,[4]; [6],67 ± 24 nM
"YADAIFTAAYRKVLAQLSARKALQDIMSR-NH2 [Ala^8, Ala^9, Ala^15, Ala^22]",IC50,[3]; [5],0.31 ± 0.14 nM
same,IC50,[4]; [6],2.88 ± 1.01 nM
"CC[C@H](C)[C@H](NC(=O)[C@H](C)NC(=O)[C@H](CC(=O)O)NC(=O)[C@@H](C)NC(=O)[C@@H](N)Cc1ccc(O)cc1)C(=O)N[C@@H](Cc1ccccc1)C(=O)N[C@H](C(=O)N[C@@H](CC(N)=O)C(=O)N[C@@H](CO)C(=O)N[C@H](Cc1ccc(O)cc1)C(=O)N[C@@H](CCCNC(=N)N)C(=O)N[C@@H](CCCCN)C(=O)N[C@H](C(=O)N[C@@H](CC(C)C)C(=O)N[C@H](C)C(=O)N[C@@H](CCC(N)=O)C(=O)N[C@@H](CC(C)C)C(=O)N[C@@H](CO)C(=O)N[C@@H](C)C(=O)N[C@@H](CCCNC(=N)N)C(=O)N[C@@H](CCCCN)C(=O)N[C@@H](CC(C)C)C(=O)N[C@@H](CC(C)C)C(=O)N[C@@H](CCC(N)=O)C(=O)N[C@@H](CC(=O)O)C(=O)N[C@H](C(=O)N[C@@H](CCSC)C(=O)N[C@@H](CO)C(=O)N[C@@H](CCCNC(=N)N)C(N)=O)[C@@H](C)CC)C(C)C)[C@@H](C)O [D-Ala^2, D-Tyr^10, D-Ala^15] (H-Y[dA]DAIFTNS[dY]RKVL[dA]QLSARKLLQDIMSR-NH2)",IC50,[3]; [5],13.1 ± 0.9 nM
same,IC50,[4]; [6],176 ± 87 nM
"CC[C@H](C)[C@H](NC(=O)[C@H](C)NC(=O)[C@H](CC(=O)O)NC(=O)[C@H](C)NC(=O)[C@@H](N)Cc1ccc(O)cc1)C(=O)N[C@@H](Cc1ccccc1)C(=O)N[C@H](C(=O)N[C@@H](CC(N)=O)C(=O)N[C@@H](CO)C(=O)N[C@@H](Cc1ccc(O)cc1)C(=O)N[C@@H](CCCNC(=N)N)C(=O)N[C@@H](CCCCN)C(=O)N[C@H](C(=O)N[C@@H](CC(C)C)C(=O)NCC(=O)N[C@@H](CCC(N)=O)C(=O)N[C@@H](CC(C)C)C(=O)N[C@@H](CO)C(=O)N[C@@H](C)C(=O)N[C@@H](CCCNC(=N)N)C(=O)N[C@@H](CCCCN)C(=O)N[C@@H](CC(C)C)C(=O)N[C@@H](CC(C)C)C(=O)N[C@@H](CCC(N)=O)C(=O)N[C@@H](CC(=O)O)C(=O)N[C@H](C(=O)N[C@@H](CCSC)C(=O)N[C@@H](CO)C(=O)N[C@@H](CCCNC(=N)N)C(N)=O)[C@@H](C)CC)C(C)C)[C@@H](C)O [hGRF(1-29)NH2, reference compound]",IC50,"[3]; Table 4, mean±SD of 2 experiments in triplicate for analogues, mean±SE of 29 experiments for hGRF(1-29)NH2",2.67 ± 0.12 nM
same,IC50,"[4]; Table 5, mean±SD of 2 experiments (analogue), mean±SE of 10 (hGRF(1-29)NH2)",36.7 ± 5.5 nM
CC[C@H](C)[C@H](NC(=O)[C@H](C)NC(=O)[C@H](CC(=O)O)NC(=O)[C@@H](C)NC(=O)[C@@H](N)Cc1ccc(O)cc1)C(=O)N[C@@H](Cc1ccccc1)C(=O)N[C@H](C(=O)N[C@@H](C)C(=O)N[C@@H](CO)C(=O)N[C@H](Cc1ccc(O)cc1)C(=O)N[C@@H](CCCNC(=N)N)C(=O)N[C@@H](CCCCN)C(=O)N[C@H](C(=O)N[C@@H](CC(C)C)C(=O)N[C@@H](C)C(=O)N[C@@H](CCC(N)=O)C(=O)N[C@@H](CC(C)C)C(=O)N[C@@H](CO)C(=O)N[C@@H](C)C(=O)N[C@@H](CCCNC(=N)N)C(=O)N[C@H](CCCCN)C(=O)N[C@@H](CCCCN)C(=O)N[C@@H](CC(C)C)C(=O)N[C@@H](CCC(N)=O)C(=O)N[C@@H](CC(=O)O)C(=O)N[C@H](C(=O)N[C@@H](CCSC)C(=O)N[C@@H](CO)C(=O)N[C@@H](CCCNC(=N)N)C(N)=O)[C@@H](C)CC)C(C)C)[C@@H](C)O (H-Y[dA]DAIFTAS[dY]RKVLAQLSAR[dK]KLQDIMSR-NH2),Hill coef.,[3]; Table 11,0.63 ± 0.07
same,Relative affinity,[3]; Table 11,500 ± 91%
